What was measured:
MAP kinase p38 [1] = biological target: T1, MAP kinase p38 (Homo sapiens, UniProt O15264+Q15759+Q16539+P53778); test: Inhibition of p38 kinase related TNF-alpha release; type: functional
MAP kinase p38 [2] = biological target: T1, MAP kinase p38; test: Inhibition of p38 MAP kinase; type: protein assay
[3] = Plasma clearance measured in rat; type: ADME, organism-based; conditions: read-out: Clp
[4] = Oral bioavailability in rat; type: ADME, organism-based; conditions: in vivo

| IC50 (MAP kinase p38 [1]) [nM] | IC50 (MAP kinase p38 [2]) [nM] | clearance [3] [mL/min/kg] | bioavailability [4] [%] | Structure (SMILES) |
| --- | --- | --- | --- | --- |
| 31 | 1.6 |  |  | CC(C)N1CCC(Nc2cc(-c3ccccc3Cl)c3c(c2)N(c2c(Cl)cccc2Cl)C(=O)NC3)CC1 |
| 20 | 0.4 |  |  | CN1C2CCC1CC(Nc1cc(-c3ccccc3Cl)c3c(c1)N(c1c(Cl)cccc1Cl)C(=O)NC3)C2 (configuration not stated) |
| 24 | 0.8 | 70 | 10 | CC(C)N1CCC(c2cc(-c3ccc(F)cc3Cl)c3c(c2)N(c2c(Cl)cccc2Cl)C(=O)CC3)CC1 |
| 51 | 1.1 |  |  | CC(C)N1CCC(Nc2cc3c(ccc(=O)n3-c3c(Cl)cccc3Cl)c(-c3ccccc3Cl)n2)CC1 |
| 24 | 0.4 | 38 | 8.5 | CN1C2CCC1CC(Nc1cc3c(ccc(=O)n3-c3c(Cl)cccc3Cl)c(-c3ccccc3Cl)n1)C2 (configuration not stated) |
| 10 | 0.8 | 9.4 | 5.9 | CC1(C)CC(Nc2cc3c(ccc(=O)n3-c3c(Cl)cccc3Cl)c(-c3ccccc3Cl)n2)CC(C)(C)N1 |
| 5.5 | 0.2 | 39 | 17 | CC(C)N1CCC(c2cc(-c3ccccc3Cl)c3ccc(=O)n(-c4c(Cl)cccc4Cl)c3c2)CC1 |
| 4.9 | 1.3 | 51 | 32 | CC(C)N1CCC(c2cc3c(ccc(=O)n3-c3c(Cl)cccc3Cl)c(-c3ccccc3Cl)n2)CC1 |
| 200 | 3.7 |  |  | CC1(C)CC(Nc2cc(-c3ccccc3Cl)c3c(c2)N(c2c(Cl)cccc2Cl)C(=O)NC3)CC(C)(C)N1 |
| 18 | 0.2 |  |  | O=c1ccc2c(-c3ccccc3Cl)nc(NC3CCNCC3)cc2n1-c1c(Cl)cccc1Cl |
| 13 | 1.1 |  |  | CN1C(C)(C)CC(Nc2cc3c(ccc(=O)n3-c3c(Cl)cccc3Cl)c(-c3ccccc3Cl)n2)CC1(C)C |

Reference: ChEMBL document CHEMBL1136554, “p38 Inhibitors: piperidine- and 4-aminopiperidine-substituted naphthyridinones, quinolinones, and dihydroquinazolinones” (Bioorg Med Chem Lett, 2003)
